The subject of one data set is SKOV-3. In words: In vitro cytological inhibitory activity (XTT). In kind it is cell-based. The conditions noted are these: Homo sapiens, SK-OV-3, 72 hrs. Here is the method: SKOV-3: Human ovarian cancer cell line;
(§1) 1. Preparation of agents and compounds:
(§2) • 1.1 Preparation of phosphoric acid buffering solution (PBS): 8 g NaCl, 0.2 g KCl, 1.44 g Na2HPO4 and 0.24 g KH2PO4 were weighed and added to 800 mL ultrapure water. The mixture was adjusted to pH=7.4, and ultrapure water was added to the metered volume of IL. Then the autoclaving was conducted for 20 mins. • 1.2 Preparation of XTT detection working solution: 100 mg (2,3-Bis-(2-methoxy-4-nitro-5-sulfophenyl)-2H-tetrazolium-5-carboxanilide); 2,3-bis(2-methoxy-4-nitro-5-sulfophenyl)-5-[(phenylamino)carbonyl]-2H-tetrazolium hydroxide (XTT) powder was weighed, and dissolved under protection from light 300 mL of phenol red-free and serum-free RPMI1640 culture, which had been warmed up to 50° C. The resulting mixture was filtered, packaged and used immediately or in one week. The complete process was conducted under protection from light. • 1.3 Preparation of the test compound • Preparation of the stock solution of the test compound: The test compound powder was dissolved in DMSO in a concentration of 10 mM. • Preparation of the gradiently diluted solution of the test compound: 10 mM of the stock solution of the test compound was successively and gradiently diluted with DMSO by 4 folds for 10 concentrations. […]
In general terms: Tetrazolium dyes change colour on reduction, which living cells bring about.

The next data set concerns U87MG. In words: In vitro cytological inhibitory activity (XTT). In kind it is cell-based. Particulars: Homo sapiens, U-87 MG, 72 hrs. Here is the method: U87MG: Human brain astrocytoblast cell line;
as §1, §2

The test system of the next data set is A549. Put plainly: In vitro cytological inhibitory activity (XTT). It is filed as cell-based. The conditions noted are these: Homo sapiens, 72 hrs. Here is the method:
A549: Human lung cancer cell line;
as §1, §2

Data set [1] is described as follows: In vivo pharmacokinetics assay in rat. Particulars: male, SD, plasma, rats; for Vd: read-out: Vss. The source says:
Test animals: male SD rats, weighing 190-260 g. Intravenous bolus injection (I.V.) and gavage (P.O.) administrations were each applied to three rats.
Compound 5, for both I.V and P.O administrations, was solubilized with a solution of 30% DMF+50% PEG400+20%(0.9% sodium chloride injection)(the pH being adjusted with a suitable amount of an aqueous hydrochloric acid solution (2 mol/L)).
Compound 6, for both I.V and P.O administrations, was solubilized with a solution of 30% DMF+30% PEG400+5%0.1 mol/lhydrochloric acid+[…] normal saline.
Compound 30 for I.V administration was solubilized with a solution of 30% DMF+50% PEG400+20% normal saline; Compound 30 for P.O administration was solubilized with a solution of 5% DMSO+30% polyoxyethylene castor oil+65% normal saline.
Compound 30 hydrochloride for I.V administration was solubilized with a solution of 30% DMF+50% PEG400+20% sterile water for injection.
I.V blood sampling time point: 0.083 h, 0.25 h, 0.5 h, 1 h, 2 h, 4 h, 6 h, 8 h and 24 h after the administration, P.O blood sampling time point: 0.17 h, 0.5 h, 1 h, 2 h, 4 h, 6 h, 8 h and 24 h after the administration.
About 100 μl of whole blood was taken at each time point, anticoagulated with heparin sodium, and centrifugated at 8,000 rpm in a high-speed centrifuge for 6 minutes to separate plasma, and the resulting plasma was frozen at −80° C. in a refrigerator.
The plasma sample was treated with a liquid-liquid extraction. 20 μL of plasma was taken. A solution of BEZ-235 (Novartis, Phase II) in tertbutylmethylether (600 μL, 10 ng/mL) was added as internal standard. The mixture was rotated vertically at 1500 rpm for 10 mins and then centrifugated at 12000 rpm for 5 mins. 400 μL of the supernate was taken and dried under nitrogen. The dried substance was redissolved in 200 μL methanol:water (7:3, V/V) for LC-MS/MS analysis.
Calculation Absolute bioavailability F%=[AUC]last (P.O)*Dose(I.V)/[AUC]last (I.V)*Dose(P.O)

In another data set the test system is PC-3. In words: In vitro cytological inhibitory activity (XTT). It is filed as cell-based. The conditions noted are these: Homo sapiens, 72 hrs. How it is done: PC-3: Human prostatic carcinoma cell line;
as §1, §2

The next data set deals with PI3Kα (Homo sapiens (Human), UniProt P42336). Put plainly: PI3Kα enzymatic assay. In kind it is biochemical. The conditions noted are these: read-out: In vitro enzymatic activity (IC50) PI3Kα. How it is done: (§3) Assay 1-2: In Vitro Enzymatic Inhibitory Activity of the Present Compound
PI3Kα, sequence (P42336 whole entry): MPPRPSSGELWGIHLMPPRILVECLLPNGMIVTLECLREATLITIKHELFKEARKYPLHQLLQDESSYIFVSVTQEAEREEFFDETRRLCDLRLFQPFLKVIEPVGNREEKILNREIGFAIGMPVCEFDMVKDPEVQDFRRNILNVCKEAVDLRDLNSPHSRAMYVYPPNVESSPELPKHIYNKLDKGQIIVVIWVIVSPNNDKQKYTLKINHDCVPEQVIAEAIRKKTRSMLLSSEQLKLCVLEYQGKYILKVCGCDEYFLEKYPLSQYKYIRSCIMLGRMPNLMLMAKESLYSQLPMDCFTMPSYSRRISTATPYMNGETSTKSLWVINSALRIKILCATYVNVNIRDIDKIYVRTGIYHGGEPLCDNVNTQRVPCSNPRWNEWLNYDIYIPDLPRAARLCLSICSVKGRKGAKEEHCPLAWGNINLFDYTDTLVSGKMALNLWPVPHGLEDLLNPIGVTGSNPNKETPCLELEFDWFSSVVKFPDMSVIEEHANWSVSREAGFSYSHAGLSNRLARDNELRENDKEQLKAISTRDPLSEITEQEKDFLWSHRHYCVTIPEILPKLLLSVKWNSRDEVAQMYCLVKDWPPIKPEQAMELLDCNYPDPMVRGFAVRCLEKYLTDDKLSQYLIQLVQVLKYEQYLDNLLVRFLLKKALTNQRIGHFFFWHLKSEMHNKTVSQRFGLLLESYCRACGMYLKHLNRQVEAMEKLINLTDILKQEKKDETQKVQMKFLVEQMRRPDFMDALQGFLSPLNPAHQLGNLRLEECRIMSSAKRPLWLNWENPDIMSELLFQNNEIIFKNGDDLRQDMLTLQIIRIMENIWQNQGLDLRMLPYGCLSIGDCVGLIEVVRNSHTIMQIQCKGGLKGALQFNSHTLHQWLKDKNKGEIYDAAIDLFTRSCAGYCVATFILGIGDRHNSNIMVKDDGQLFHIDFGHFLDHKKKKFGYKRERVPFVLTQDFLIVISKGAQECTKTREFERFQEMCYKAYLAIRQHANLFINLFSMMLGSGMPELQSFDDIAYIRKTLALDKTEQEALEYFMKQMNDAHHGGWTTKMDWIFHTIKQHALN
PI3Kα, sequence (P27986 whole entry partner): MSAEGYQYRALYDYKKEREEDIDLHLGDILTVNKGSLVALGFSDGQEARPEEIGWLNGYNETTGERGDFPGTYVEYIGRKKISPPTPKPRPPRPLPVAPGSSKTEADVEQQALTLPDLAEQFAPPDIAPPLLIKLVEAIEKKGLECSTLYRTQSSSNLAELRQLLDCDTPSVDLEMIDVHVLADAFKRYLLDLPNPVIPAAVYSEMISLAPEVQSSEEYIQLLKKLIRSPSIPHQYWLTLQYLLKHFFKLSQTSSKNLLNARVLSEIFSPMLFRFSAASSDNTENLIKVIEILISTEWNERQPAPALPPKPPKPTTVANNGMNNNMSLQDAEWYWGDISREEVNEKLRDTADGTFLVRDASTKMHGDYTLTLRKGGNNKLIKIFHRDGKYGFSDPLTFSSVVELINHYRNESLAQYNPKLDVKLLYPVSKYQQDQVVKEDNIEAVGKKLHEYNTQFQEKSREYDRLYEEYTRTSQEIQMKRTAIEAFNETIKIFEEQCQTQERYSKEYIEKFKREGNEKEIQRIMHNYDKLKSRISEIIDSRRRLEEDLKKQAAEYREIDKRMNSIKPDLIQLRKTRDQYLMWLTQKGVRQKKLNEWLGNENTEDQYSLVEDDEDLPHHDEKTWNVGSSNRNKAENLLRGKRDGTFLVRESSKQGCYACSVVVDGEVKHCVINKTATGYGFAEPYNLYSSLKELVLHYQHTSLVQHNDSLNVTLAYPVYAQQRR
(§4) • 1.1 1-fold kinase buffer: 50 mM HEPES, pH 7.5, 10 mM MgCl2, 1 mM EGTA, 3 mM MnCl2, 0.01% Tween-20, 2 mM DTT; • 1.2 4-fold kinase solution: mTOR kinase was added to 1-fold kinase buffer to form 4-fold kinase solution with a final concentration of 2.5 nM; • 1.3 2-fold substrate and ATP solution: the substrate 4EBP1 and ATP were added to 1-fold kinase buffer to form 2-fold substrate solution with final concentration of 50 nM of 4EBP1 and 10.8 μM of ATP; • 1.4 4-fold test substance solutions: 100-fold test substance solutions in different gradient concentrations were formulated with 100% DMSO, and diluted by 25 folds with 1-fold kinase buffer to form 4-fold test substance solutions in different gradient concentrations. • 1.5 Preparation of detection solution: a detection solution containing 2-fold final concentrations of EDTA and 4EBP1 phosphorylated antibody was formulated, wherein the final concentration for EDTA was 8 mM, and the final concentration for the 4EBP phosphorylated antibody was 2 nM. 2. Procedure • 2.1 To each well of a 384-well plate was added 2.5 μL of the 4-fold test substance solutions in gradient concentrations. The replication was made. • 2.2 To each well was added 2.5 μL of 4-fold kinase solution, and then the plate was incubated for 10 mins; • 2.3 Then to each well was added 5 μL/of 2-fold substrate and ATP solution, and then the plate was incubated at room temperature for 1 hour; • 2.4 Finally, 10 μL of the detection solution was added to terminate the reaction. After 60 mins, the data Lance signal ([…]) was read from Envision. 3 Data treatment Inhibition rate (%)=[…] • wherein: • maximum refers to the reading at the DMSO control well. • minimum refers to the reading at the control well without kinase, • The data was input into Graphpad Prism 5.0 to plot and obtain the curve and IC50 value. PI3Kα Enzymatic Assay 1. […] After 15 mins, the data Lance signal ([…]) was read from Envision. 3 Data treatment Inhibition rate (%)=100−(sample value−minimum)/(maximum−minimum)×100 • wherein: • maximum refers to the reading at the control well without kinase, • minimum refers to the reading at the DMSO control well, • The data was input into Graphpad Prism 5.0 to plot and obtain the curve and IC50 value. […]

The target in the next data set is mTOR (Homo sapiens (Human), UniProt P42345). Put plainly: mTOR enzymatic assay. In kind it is biochemical. The conditions noted are these: read-out: In vitro enzymatic activity (IC50) mTOR. Here is the method:
as §3
1. Preparation of Agents:
as §4

pIC50: −log10 of the molar value. Structures can show the parent of a compound that is named as a salt.

For orientation: IC50 means the concentration that gives 50% inhibition. High values mean weaker potency, low ones greater potency. Usually AUC(0-inf) stands for the area under the concentration-time curve extrapolated to infinity. Read a high AUC(0-inf) as more exposure. As a reminder, the AUC(0-t) is the area under the concentration-time curve up to a stated or last time point. Read a high AUC(0-t) as high exposure. A word on the clearance: it is the rate of elimination divided by the concentration. As a reminder, the half-life is how long it takes for the measured level to halve. For orientation: Cmax means the maximum level reached in the sampled fluid or tissue. The term Tmax denotes the time from dosing to the highest level. Consider `Cn1c(=O)c2cnc3ccc(-c4ccc(N)nc4)nc3c2n(-c2cccc(C(F)(F)F)c2)c1=O` [Compound 6], for which the IC50 in the data set on SKOV-3 came to 63.1 nM. In the data set on U87MG, this molecule had an IC50 of 37.6 nM. Besides, the IC50 with A549 is 89.5 nM. Further, in data set [1] (intravenous, I.V, 2 mg/kg), the AUC(0-inf) turned out to be 4470 ng·h/mL, the AUC(0-t) was determined as 4450 ng·h/mL, the clearance is 7.67 mL/min/kg and the half-life was 189 min. In addition, the Vd in data set [1] (intravenous, I.V, 2 mg/kg) amounted to 1.95 L/kg. The bioavailability in data set [1] (oral, P.O 4 mg/kg vs I.V 2 mg/kg, read-out: F % (absolute bioavailability)) came to 115%. Also, in data set [1] (oral, P.O, 4 mg/kg), the AUC(0-inf) was 10300 ng·h/mL, the exposure AUC(0-t) stood at 10200 ng·h/mL, the highest concentration (Cmax) is 1120 ng/mL and the Tmax was 2 h. This molecule had a half-life in data set [1] (oral, P.O, 4 mg/kg) of 235 min. The molecule further yielded an IC50 with PC-3 of 35.8 nM.
What is called pIC50 is the negative decadic logarithm of the IC50, by convention in mol/L. `Nc1ncc(-c2ccc3ncc4c(=O)[nH]c(=O)n(-c5cccc(C(F)(F)F)c5)c4c3n2)cn1` [Compound 20, 9-(2-aminopyrimidin-5-yl)-1-(3-(trifluoromethyl)phenyl)pyrimido[5,4-c][1,5]naphthyridine-2,4(1H,3H)-dione]: the pIC50 at PI3Kα is 7.82; on mTOR, 8.58.
Taken in the same sequence, the figures for `COc1ccc(-c2ccc3ncc4c(=O)[nH]c(=O)n(-c5cccc(C(F)(F)F)c5)c4c3n2)cn1` [Compound 2, 9-(6-methoxypyridin-3-yl)-1-(3-(trifluoromethyl)phenyl)pyrimido[5,4-c][1,5]naphthyridine-2,4(1H,3H)-dione] were 7.10 and 7.24.
In data set [1] (intravenous, I.V, 2 mg/kg), `O=c1[nH]c(=O)n(-c2cccc(C(F)(F)F)c2)c2c1cnc1ccc(-c3cnc4[nH]ccc4c3)nc12` [Compound 30 hydrochloride] gave an AUC(0-inf) of 1690 ng·h/mL, an AUC(0-t) of 1680 ng·h/mL, a clearance of 19.7 mL/min/kg and a half-life of 182 min. Besides, in data set [1] (intravenous, I.V, 2 mg/kg), the Vd stood at 2.49 L/kg.
For the molecule `COc1ncc(-c2ccc3ncc4c(=O)[nH]c(=O)n(-c5cccc(C(F)(F)F)c5)c4c3n2)cn1` [Compound 17, 9-(2-methoxypyrimidin-5-yl)-1-(3-(trifluoromethyl)phenyl)pyrimido[5,4-c][1,5]naphthyridine-2,4(1H,3H)-dione], the pIC50 is 7.39 at PI3Kα and 7.41 at mTOR.

(Values after patent publication US9365572B2, “PI3K and/or mTOR inhibitor” (XUANZHU PHARMA CO., LTD., priority 2012, dated 2016).)
